The target of this experiment is Mineralocorticoid receptor (Homo sapiens, UniProt P08235). Briefly: Antagonist activity at mineralocorticoid receptor (unknown origin).

Among the data in ChEMBL document CHEMBL2311467, “Microwave-assisted synthesis of pyrimido[4,5-b][1,6]naphthyridin-4(3H)-ones with potential antitumor activity” (Eur J Med Chem, 2013) are IC50 values, retold here.

A word on the IC50: it is the midpoint of a concentration-inhibition curve. High values mean weaker potency, low ones greater potency.

Sequence of Mineralocorticoid receptor (P08235 whole entry): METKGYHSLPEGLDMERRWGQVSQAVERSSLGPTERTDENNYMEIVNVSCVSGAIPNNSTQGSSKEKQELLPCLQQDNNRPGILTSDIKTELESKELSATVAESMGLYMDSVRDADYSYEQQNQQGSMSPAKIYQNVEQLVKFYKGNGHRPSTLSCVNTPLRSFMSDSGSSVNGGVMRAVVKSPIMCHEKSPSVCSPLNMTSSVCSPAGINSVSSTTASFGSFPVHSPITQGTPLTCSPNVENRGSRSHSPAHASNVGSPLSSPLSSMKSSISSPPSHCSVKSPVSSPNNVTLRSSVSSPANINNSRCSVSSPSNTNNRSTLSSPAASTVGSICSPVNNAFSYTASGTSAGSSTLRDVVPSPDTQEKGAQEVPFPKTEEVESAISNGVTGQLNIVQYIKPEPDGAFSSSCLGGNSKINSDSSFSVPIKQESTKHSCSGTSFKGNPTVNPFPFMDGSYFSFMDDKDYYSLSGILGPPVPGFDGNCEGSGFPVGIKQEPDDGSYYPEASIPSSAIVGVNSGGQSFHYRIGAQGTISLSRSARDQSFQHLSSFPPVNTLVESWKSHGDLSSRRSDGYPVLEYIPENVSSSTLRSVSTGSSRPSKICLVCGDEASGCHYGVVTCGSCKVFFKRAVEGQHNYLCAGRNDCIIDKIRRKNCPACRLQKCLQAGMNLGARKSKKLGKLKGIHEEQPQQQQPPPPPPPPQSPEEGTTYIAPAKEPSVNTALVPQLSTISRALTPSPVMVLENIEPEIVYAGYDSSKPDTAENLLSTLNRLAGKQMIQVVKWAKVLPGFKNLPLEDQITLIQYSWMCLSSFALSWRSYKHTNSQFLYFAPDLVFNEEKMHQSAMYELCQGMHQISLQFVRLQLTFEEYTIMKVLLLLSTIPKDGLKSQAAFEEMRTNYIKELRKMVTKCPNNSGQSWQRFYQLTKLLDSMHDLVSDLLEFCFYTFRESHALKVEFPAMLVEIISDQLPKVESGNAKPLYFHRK

As to `CCOc1ncc(C)c2c1[C@H](c1ccc(C#N)cc1OC)C(C(N)=O)=C(C)N2` [FINERENONE], the IC50 was 18 nM. This lies in the double-digit nanomolar range.
